Data published in PubChem BioAssay AID2060621 (Molecular Pharmacology Branch, DTP, NCI, 2025).

Test system: 324938-238-R-J1-PDC complex spheroids viability
Test: Anticancer human tumor 324938-238-R-J1-PDC patient-derived bladder carcinoma cell line growth inhibition [CLK]
Settings: for IC50: curve of first compound; for viability, T/C: stronger effect = lower value
In short: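 Multi-cell-type spheroids combined patient-derived tumor cells with HUVEC endothelial cells and human mesenchymal stem cells. Paired agents were dosed in half-log steps down from about clinical Cmax, or from 10 microM where Cmax was unknown.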
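Note: viability read after seven days of drug exposure.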
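Throughout, for viability, T/C: 100% = DMSO vehicle control wells.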

`C=CC(=O)Nc1cc(Nc2nccc(-c3cn(C)c4ccccc34)n2)c(OC)cc1N(C)CCN(C)C` + CNC(=O)c1ccc(Nc2nc(OC3CCCC3)c3c(-c4ccc5nc(C)oc5c4)c[nH]c3n2)c(OC)c1 gave an IC50 (second compound 0.0316 µM) of 39.6 nM, an IC50 (second compound 0.1 µM) of less than 0.949 nM and an IC50 (second compound 0.316 µM) of less than 0.949 nM. It also gave an IC50 (second compound 1 µM) of less than 0.949 nM, an IC50 (second compound 3.16 µM) of less than 0.949 nM and an IC50 (second compound 10 µM) of less than 0.949 nM. It also gave a viability, T/C (second compound 0.0316 µM, first compound 0.000949 µM) of 92.5%, a viability, T/C (second compound 0.0316 µM, first compound 0.003 µM) of 87.2% and a viability, T/C (second compound 0.0316 µM, first compound 0.00949 µM) of 74.5%. It also gave a viability, T/C (second compound 0.0316 µM, first compound 0.03 µM) of 52.8%, a viability, T/C (second compound 0.0316 µM, first compound 0.0949 µM) of 38.6% and a viability, T/C (second compound 0.0316 µM, first compound 0.3 µM) of 27.7%. For the same molecule, the viability, T/C (second compound 0.1 µM, first compound 0.000949 µM) was 30.5%, the viability, T/C (second compound 0.1 µM, first compound 0.003 µM) was 24.8% and the viability, T/C (second compound 0.1 µM, first compound 0.00949 µM) was 21.4%. It also gave a viability, T/C (second compound 0.1 µM, first compound 0.03 µM) of 20.3%, a viability, T/C (second compound 0.1 µM, first compound 0.0949 µM) of 15.6% and a viability, T/C (second compound 0.1 µM, first compound 0.3 µM) of 14.1%. For the same molecule, the viability, T/C (second compound 0.316 µM, first compound 0.000949 µM) was 19%, the viability, T/C (second compound 0.316 µM, first compound 0.003 µM) was 16.8% and the viability, T/C (second compound 0.316 µM, first compound 0.00949 µM) was 19.2%. It also gave a viability, T/C (second compound 0.316 µM, first compound 0.03 µM) of 16.2%, a viability, T/C (second compound 0.316 µM, first compound 0.0949 µM) of 13.4% and a viability, T/C (second compound 0.316 µM, first compound 0.3 µM) of 12.9%. For the same molecule, the viability, T/C (second compound 1 µM, first compound 0.000949 µM) was 16.8%, the viability, T/C (second compound 1 µM, first compound 0.003 µM) was 15.5% and the viability, T/C (second compound 1 µM, first compound 0.00949 µM) was 16.8%. For the same molecule, the viability, T/C (second compound 1 µM, first compound 0.03 µM) was 11.8%, the viability, T/C (second compound 1 µM, first compound 0.0949 µM) was 11.1% and the viability, T/C (second compound 1 µM, first compound 0.3 µM) was 11.5%. The viability, T/C (second compound 3.16 µM, first compound 0.000949 µM) was 16.8%, the viability, T/C (second compound 3.16 µM, first compound 0.003 µM) was 17.6% and the viability, T/C (second compound 3.16 µM, first compound 0.00949 µM) was 13.1%. The viability, T/C (second compound 3.16 µM, first compound 0.03 µM) was 14.3%, the viability, T/C (second compound 3.16 µM, first compound 0.0949 µM) was 11.9% and the viability, T/C (second compound 3.16 µM, first compound 0.3 µM) was 11.8%. For the same molecule, the viability, T/C (second compound 10 µM, first compound 0.000949 µM) was 18.1%, the viability, T/C (second compound 10 µM, first compound 0.003 µM) was 17.9% and the viability, T/C (second compound 10 µM, first compound 0.00949 µM) was 14.8%. It also gave a viability, T/C (second compound 10 µM, first compound 0.03 µM) of 13.2%, a viability, T/C (second compound 10 µM, first compound 0.0949 µM) of 12.4% and a viability, T/C (second compound 10 µM, first compound 0.3 µM) of 11.5%.
